pIC50: −log10 of the molar value. Activity calls are given as the source filed them. No cut-off for these calls is given here.
Experiments:
Adenosine kinase [1] = target: T1, Adenosine kinase (Homo sapiens, UniProt P55263); assay: Activity of human ADK assessed as compound conversion to 5'-phosphate form incubated at 37 degC for 20 mins by HPLC method; design: concentration or dose not given beside the values
Target sequence in this assay (P55263 2-362 limits assumed): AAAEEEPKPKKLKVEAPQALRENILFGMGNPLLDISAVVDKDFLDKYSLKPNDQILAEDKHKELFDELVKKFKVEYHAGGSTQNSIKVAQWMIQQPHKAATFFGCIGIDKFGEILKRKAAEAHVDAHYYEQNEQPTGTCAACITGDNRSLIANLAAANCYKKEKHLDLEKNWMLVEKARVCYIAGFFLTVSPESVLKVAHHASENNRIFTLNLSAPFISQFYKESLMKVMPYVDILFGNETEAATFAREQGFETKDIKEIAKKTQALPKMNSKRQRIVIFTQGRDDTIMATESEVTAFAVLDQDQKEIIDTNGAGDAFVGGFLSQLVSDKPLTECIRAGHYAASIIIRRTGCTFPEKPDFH

[2] = target: Adenosine kinase (Mycobacterium tuberculosis (strain CDC 1551 / Oshkosh)) (UniProt P9WID4); assay: Activity of Mycobacterium tuberculosis ADK assessed as compound conversion to 5'-phosphate form incubated at 37 degC for 20 mins by HPLC method
Chain of Adenosine kinase (Mycobacterium tuberculosis (strain CDC 1551 / Oshkosh)) (P9WID4 2-324 limits assumed): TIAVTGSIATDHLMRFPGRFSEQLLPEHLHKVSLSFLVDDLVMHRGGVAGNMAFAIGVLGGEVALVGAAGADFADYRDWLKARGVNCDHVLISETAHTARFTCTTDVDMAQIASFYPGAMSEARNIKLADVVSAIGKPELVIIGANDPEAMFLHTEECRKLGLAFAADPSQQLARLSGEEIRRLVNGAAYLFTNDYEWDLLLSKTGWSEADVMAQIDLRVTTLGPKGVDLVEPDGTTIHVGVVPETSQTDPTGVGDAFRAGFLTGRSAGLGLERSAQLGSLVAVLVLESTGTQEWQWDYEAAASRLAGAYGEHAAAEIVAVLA

[3] = Cytotoxicity against human BJ cells after 72 hrs by MTT assay; assay type: cell-based
[4] = Cytotoxicity against human MRC5 cells after 72 hrs by MTT assay; assay type: cell-based
Adenosine kinase [5] = target: T1, Adenosine kinase; assay: Inhibition of human ADK using [3H]-adenosine by scintillation counting method
Target sequence in this assay (P55263 whole entry): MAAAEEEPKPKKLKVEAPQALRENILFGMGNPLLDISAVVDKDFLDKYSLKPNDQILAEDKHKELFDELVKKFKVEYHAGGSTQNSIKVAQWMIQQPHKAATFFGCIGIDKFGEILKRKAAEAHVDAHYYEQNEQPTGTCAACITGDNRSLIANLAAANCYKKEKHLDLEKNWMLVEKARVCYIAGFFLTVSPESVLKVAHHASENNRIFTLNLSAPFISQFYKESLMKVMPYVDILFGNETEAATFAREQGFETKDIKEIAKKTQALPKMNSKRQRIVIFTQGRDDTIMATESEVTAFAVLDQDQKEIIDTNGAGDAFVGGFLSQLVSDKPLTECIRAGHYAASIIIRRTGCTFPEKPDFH

Adenosine kinase [6] = target: Adenosine kinase (Mycobacterium tuberculosis (strain CDC 1551 / Oshkosh), UniProt P9WID4); assay: Inhibition of Mycobacterium tuberculosis ADK using [3H]-adenosine by scintillation counting method
Chain of Adenosine kinase (Mycobacterium tuberculosis (strain CDC 1551 / Oshkosh), UniProt P9WID4) (P9WID4 whole entry): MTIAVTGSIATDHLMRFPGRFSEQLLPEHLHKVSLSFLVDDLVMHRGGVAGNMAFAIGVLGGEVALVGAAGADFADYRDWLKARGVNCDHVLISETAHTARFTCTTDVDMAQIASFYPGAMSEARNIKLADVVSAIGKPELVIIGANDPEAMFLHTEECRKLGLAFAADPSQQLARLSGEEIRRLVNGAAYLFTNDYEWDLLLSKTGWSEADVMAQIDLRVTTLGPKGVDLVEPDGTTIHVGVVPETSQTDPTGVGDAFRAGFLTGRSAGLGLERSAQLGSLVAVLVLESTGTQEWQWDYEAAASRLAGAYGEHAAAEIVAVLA

OC[C@H]1O[C@@H](n2cc(Cl)c3c(-c4ccsc4)ncnc32)[C@H](O)[C@@H]1O
Activity (Adenosine kinase [1]): 97%
Activity [2]: inactive
CC50 at 72 h [3]: 1720 nM
CC50 at 72 h [4]: > 50000 nM
pIC50 (Adenosine kinase [5]): < 5.00
pIC50 (Adenosine kinase [6]): 6.60

Cc1ncnc2c1ccn2[C@@H]1O[C@H](CO)[C@@H](O)[C@H]1O
Activity (Adenosine kinase [1]): 54%
Activity [2]: inactive
CC50 at 72 h [3]: 98 nM
CC50 at 72 h [4]: 81 nM
pIC50 (Adenosine kinase [5]): < 5.00
pIC50 (Adenosine kinase [6]): 5.06

OC[C@H]1O[C@@H](n2ccc3c(-c4ccc[nH]4)ncnc32)[C@H](O)[C@@H]1O
Activity (Adenosine kinase [1]): 40%
Activity [2]: inactive
CC50 at 72 h [3]: > 50000 nM
CC50 at 72 h [4]: > 50000 nM
pIC50 (Adenosine kinase [5]): < 5.00
pIC50 (Adenosine kinase [6]): 7.14

OC[C@H]1O[C@@H](n2ccc3c(-c4ccc(F)cc4)ncnc32)[C@H](O)[C@@H]1O
Activity (Adenosine kinase [1]): 17%
Activity [2]: inactive
CC50 at 72 h [3]: > 50000 nM
CC50 at 72 h [4]: > 50000 nM
pIC50 (Adenosine kinase [5]): < 5.00
pIC50 (Adenosine kinase [6]): 7.10

OC[C@H]1O[C@@H](n2cc(F)c3c(-c4cc[nH]c4)ncnc32)[C@H](O)[C@@H]1O
Activity (Adenosine kinase [1]): 97%
Activity [2]: inactive
CC50 at 72 h [3]: 2020 nM
CC50 at 72 h [4]: 48900 nM
pIC50 (Adenosine kinase [5]): < 5.00
pIC50 (Adenosine kinase [6]): 6.40

OC[C@H]1O[C@@H](n2cc(Cl)c3c(-c4ccoc4)ncnc32)[C@H](O)[C@@H]1O
Activity (Adenosine kinase [1]): 100%
Activity [2]: inactive
CC50 at 72 h [3]: 21600 nM
CC50 at 72 h [4]: > 50000 nM
pIC50 (Adenosine kinase [5]): 5.47
pIC50 (Adenosine kinase [6]): 6.52

OC[C@H]1O[C@@H](n2cc(F)c3c(-c4ccccc4)ncnc32)[C@H](O)[C@@H]1O
Activity (Adenosine kinase [1]): 17%
Activity [2]: inactive
CC50 at 72 h [3]: > 50000 nM
CC50 at 72 h [4]: > 50000 nM
pIC50 (Adenosine kinase [5]): < 5.00
pIC50 (Adenosine kinase [6]): 6.70

OC[C@H]1O[C@@H](n2cc(F)c3c(-c4cccs4)ncnc32)[C@H](O)[C@@H]1O
Activity (Adenosine kinase [1]): 52%
Activity [2]: inactive
CC50 at 72 h [3]: 170 nM
CC50 at 72 h [4]: 47200 nM
pIC50 (Adenosine kinase [5]): 5.96
pIC50 (Adenosine kinase [6]): 7.46

OC[C@H]1O[C@@H](n2ccc3c(-c4nccs4)ncnc32)[C@H](O)[C@@H]1O
Activity (Adenosine kinase [1]): 41%
Activity [2]: inactive
CC50 at 72 h [3]: 260 nM
CC50 at 72 h [4]: 37000 nM
pIC50 (Adenosine kinase [5]): < 4.70
pIC50 (Adenosine kinase [6]): 7.64

OCc1ncnc2c1ccn2[C@@H]1O[C@H](CO)[C@@H](O)[C@H]1O
Activity (Adenosine kinase [1]): 26%
Activity [2]: inactive
CC50 at 72 h [3]: 340 nM
CC50 at 72 h [4]: 280 nM
pIC50 (Adenosine kinase [5]): < 5.00
pIC50 (Adenosine kinase [6]): < 5.30

OC[C@H]1O[C@@H](n2ccc3c(-c4ccc[se]4)ncnc32)[C@H](O)[C@@H]1O
Activity (Adenosine kinase [1]): 43%
Activity [2]: inactive
CC50 at 72 h [3]: 1520 nM
CC50 at 72 h [4]: > 50000 nM
pIC50 (Adenosine kinase [5]): < 5.00
pIC50 (Adenosine kinase [6]): 7.52

OC[C@H]1O[C@@H](n2cc(Cl)c3c(-c4ccccc4)ncnc32)[C@H](O)[C@@H]1O
Activity (Adenosine kinase [1]): 29%
Activity [2]: inactive
CC50 at 72 h [3]: 44500 nM
CC50 at 72 h [4]: > 50000 nM
pIC50 (Adenosine kinase [5]): < 5.00
pIC50 (Adenosine kinase [6]): 6.66

OC[C@H]1O[C@@H](n2cc(F)c3c(-c4ccsc4)ncnc32)[C@H](O)[C@@H]1O
Activity (Adenosine kinase [1]): 51%
Activity [2]: inactive
CC50 at 72 h [3]: 620 nM
CC50 at 72 h [4]: 50000 nM
pIC50 (Adenosine kinase [5]): < 5.00
pIC50 (Adenosine kinase [6]): 7.20

OC[C@H]1O[C@@H](n2cc(Cl)c3c(-c4cccs4)ncnc32)[C@H](O)[C@@H]1O
Activity (Adenosine kinase [1]): 100%
Activity [2]: inactive
CC50 at 72 h [3]: 4970 nM
CC50 at 72 h [4]: > 50000 nM
pIC50 (Adenosine kinase [5]): 5.92
pIC50 (Adenosine kinase [6]): 7.15

OC[C@H]1O[C@@H](n2ccc3c(-c4cc[nH]c4)ncnc32)[C@H](O)[C@@H]1O
Activity (Adenosine kinase [1]): 70%
Activity [2]: inactive
CC50 at 72 h [3]: 1870 nM
CC50 at 72 h [4]: 40200 nM
pIC50 (Adenosine kinase [5]): < 5.00
pIC50 (Adenosine kinase [6]): 6.52

OC[C@H]1O[C@@H](n2cc(F)c3c(-c4c[nH]cn4)ncnc32)[C@H](O)[C@@H]1O
Activity (Adenosine kinase [1]): 11%
Activity [2]: inactive
CC50 at 72 h [3]: > 50000 nM
CC50 at 72 h [4]: > 50000 nM
pIC50 (Adenosine kinase [5]): < 4.70
pIC50 (Adenosine kinase [6]): 6.00

OC[C@H]1O[C@@H](n2ccc3c(-c4ccn[nH]4)ncnc32)[C@H](O)[C@@H]1O
Activity (Adenosine kinase [1]): 31%
Activity [2]: inactive
CC50 at 72 h [3]: 43900 nM
CC50 at 72 h [4]: 1160 nM
pIC50 (Adenosine kinase [5]): < 4.70
pIC50 (Adenosine kinase [6]): 7.23

OC[C@H]1O[C@@H](n2cc(Cl)c3c(-c4ccco4)ncnc32)[C@H](O)[C@@H]1O
Activity (Adenosine kinase [1]): 77%
Activity [2]: inactive
CC50 at 72 h [3]: 37200 nM
CC50 at 72 h [4]: > 50000 nM
pIC50 (Adenosine kinase [5]): 6.54
pIC50 (Adenosine kinase [6]): 6.96

OC[C@H]1O[C@@H](n2ccc3c(-c4ccccn4)ncnc32)[C@H](O)[C@@H]1O
Activity (Adenosine kinase [1]): 39%
Activity [2]: inactive
CC50 at 72 h [3]: 1740 nM
CC50 at 72 h [4]: > 50000 nM
pIC50 (Adenosine kinase [5]): < 5.00
pIC50 (Adenosine kinase [6]): 6.92

OC[C@H]1O[C@@H](n2ccc3c(-c4c[nH]cn4)ncnc32)[C@H](O)[C@@H]1O
Activity (Adenosine kinase [1]): 28%
Activity [2]: inactive
CC50 at 72 h [3]: 210 nM
CC50 at 72 h [4]: > 50000 nM
pIC50 (Adenosine kinase [5]): < 5.00
pIC50 (Adenosine kinase [6]): 6.11

OC[C@H]1O[C@@H](n2ccc3c(-c4ccsc4)ncnc32)[C@H](O)[C@@H]1O
Activity (Adenosine kinase [1]): 56%
Activity [2]: inactive
CC50 at 72 h [3]: 21300 nM
CC50 at 72 h [4]: > 50000 nM
pIC50 (Adenosine kinase [5]): < 5.00
pIC50 (Adenosine kinase [6]): 6.71

OC[C@H]1O[C@@H](n2cc(F)c3c(-c4ccco4)ncnc32)[C@H](O)[C@@H]1O
Activity (Adenosine kinase [1]): 50%
Activity [2]: inactive
CC50 at 72 h [3]: 310 nM
CC50 at 72 h [4]: 29000 nM
pIC50 (Adenosine kinase [5]): 5.89
pIC50 (Adenosine kinase [6]): 6.72

OC[C@H]1O[C@@H](n2cc(F)c3c(-c4ccc[nH]4)ncnc32)[C@H](O)[C@@H]1O
Activity (Adenosine kinase [1]): 76%
Activity [2]: inactive
CC50 at 72 h [3]: 2990 nM
CC50 at 72 h [4]: 44400 nM
pIC50 (Adenosine kinase [5]): < 5.00
pIC50 (Adenosine kinase [6]): 7.15

OC[C@H]1O[C@@H](n2ccc3c(-c4cn[nH]c4)ncnc32)[C@H](O)[C@@H]1O
Activity (Adenosine kinase [1]): 7%
Activity [2]: inactive
CC50 at 72 h [3]: 42100 nM
CC50 at 72 h [4]: > 50000 nM
pIC50 (Adenosine kinase [5]): < 4.70
pIC50 (Adenosine kinase [6]): 6.17

OC[C@H]1O[C@@H](n2cc(F)c3c(-c4nccs4)ncnc32)[C@H](O)[C@@H]1O
Activity (Adenosine kinase [1]): 75%
Activity [2]: inactive
CC50 at 72 h [3]: 630 nM
CC50 at 72 h [4]: > 50000 nM
pIC50 (Adenosine kinase [5]): < 4.70
pIC50 (Adenosine kinase [6]): 7.55

OC[C@H]1O[C@@H](n2cc(Cl)c3c(-c4ccc(F)cc4)ncnc32)[C@H](O)[C@@H]1O
Activity [2]: inactive
CC50 at 72 h [3]: 49500 nM
CC50 at 72 h [4]: > 50000 nM
pIC50 (Adenosine kinase [5]): < 4.70
pIC50 (Adenosine kinase [6]): 6.40

OC[C@H]1O[C@@H](n2ccc3c(-c4ccoc4)ncnc32)[C@H](O)[C@@H]1O
Activity (Adenosine kinase [1]): 32%
Activity [2]: inactive
CC50 at 72 h [3]: 1200 nM
CC50 at 72 h [4]: 45400 nM
pIC50 (Adenosine kinase [5]): < 5.00
pIC50 (Adenosine kinase [6]): 6.49

OC[C@H]1O[C@@H](n2ccc3c(-c4ccco4)ncnc32)[C@H](O)[C@@H]1O
Activity (Adenosine kinase [1]): 56%
Activity [2]: inactive
CC50 at 72 h [3]: 230 nM
CC50 at 72 h [4]: 11800 nM
pIC50 (Adenosine kinase [5]): 5.89
pIC50 (Adenosine kinase [6]): 6.49

CCCCCCCCCCCCCCCCCCOP(=O)(O)OC[C@H]1O[C@@H](n2ccc3c(-c4cc5ccccc5o4)ncnc32)[C@H](O)[C@@H]1O
Activity [2]: inactive
CC50 at 72 h [3]: > 50000 nM
CC50 at 72 h [4]: > 50000 nM
pIC50 (Adenosine kinase [5]): 5.54
pIC50 (Adenosine kinase [6]): < 4.70

OC[C@H]1O[C@@H](n2ccc3c(-c4cccc5c4oc4ccccc45)ncnc32)[C@H](O)[C@@H]1O
Activity [2]: inactive
CC50 at 72 h [3]: > 50000 nM
CC50 at 72 h [4]: > 50000 nM
pIC50 (Adenosine kinase [5]): 5.28
pIC50 (Adenosine kinase [6]): 5.63

Source: ChEMBL document CHEMBL3132858, “6-Alkyl-, 6-aryl- or 6-hetaryl-7-deazapurine ribonucleosides as inhibitors of human or MTB adenosine kinase and potential antimycobacterial agents” (Medchemcomm, 2013)
